{
  "source": "patent US20140155429A1",
  "about": "“Treatment of Cognitive Disorders with Certain Alpha-7 Nicotinic Acid Receptor Agonists in Combination with Nicotine” (EnVivo Pharmaceuticals, Inc., priority 2011, published 2014)",
  "key": {"schizophrenia subjects": {"system": "schizophrenia subjects", "test": "Sensory electrophysiological responses (P50 gating, MMN, P300, N100) in schizophrenia subjects", "format": "in vivo, human", "settings": "in combination with a tobacco-free nicotine dosage form, greater than compound alone, expected at a daily dose as low as 0.3 mg", "description": "These effects are expected at a daily dose as low as 0.3 mg of (R)-7-chloro-N-(quinuclidin-3-yl)benzo[b]thiophene-2-carboxamide hydrochloride.\nImpairment of the ability of central nervous system to inhibit irrelevant sensory information has long been used as a model for understanding the deficits of attention seen in schizophrenic subjects. Two approaches to the measurement of this ability have commonly been employed (see (Heinrichs, 2004; Potter et al., 2006; Turetsky et al., 2007; Umbricht and Krljes, 2005) for reviews and meta-analyses): (1) the sensory gating paradigm in which the presentation of one stimulus normally suppresses the response elicited by a stimulus which rapidly follows it. […] (2) the oddball or orienting paradigm in which a rare or unexpected event elicits a diminished response in schizophrenic subjects because attentional resources are inappropriately focused on less salient aspects of the environment.\nTwo responses are commonly used assess brain activity: (1) the auditory P50 response elicited by the second member of a pair of clicks; and (2) the mismatch negativity (MMN) or N2 response evoked by a rarely occurring pure tone of no instructed relevance to the subject. Abnormalities in both P50 gating and the MMN have been reported in schizophrenic subjects. […]"}, "humans": {"system": "humans", "test": "Procognitive effects in humans at low doses", "format": "in vivo, human", "settings": "unexpectedly low doses", "text": "Thus, (R)-7-chloro-N-(quinuclidin-3-yl)benzo[b]thiophene-2-carboxamide and pharmaceutically acceptable salts thereof can be used at unexpectedly low doses improve cognition in individuals suffering from impaired cognition and in healthy individuals (i.e., individuals that are not suffering from an apparent cognitive deficit). For example, it can be used to improve cognition in subjects suffering from Alzheimer's disease, schizophrenia and other disorders such as other neurodegenerative diseases (e.g., Huntington's Disease or Parkinson's Disease) and attention deficit disorder. It can be used to treat certain disorders, e.g., Alzheimer's disease, schizophrenia (e.g., paranoid type, disorganized type, catatonic type, and undifferentiated type), schizophreniform disorder, schizoaffective disorder, delusional disorder, positive symptoms of schizophrenia, negative symptoms of schizophrenia at a daily dose of 3 mg, 2.70 mg, 2.50 mg, 2.25 mg, 2 mg, 1.75 mg, 1.50 mg, 1.25 mg, 1 mg, 0.7, 0.5, 0.3 mg or even 0.1 mg. The compound can be used to improve one or more aspects of cognition, e.g., one or more of: executive function, memory (e.g., working memory), social cognition, visual learning, verbal learning and speed of processing. […]"}, "[1]": {"test": "Memory improvement at a subclinical dose in combination with an acetylcholinesterase inhibitor", "format": "in vivo", "settings": "in combination with an acetylcholinesterase inhibitor also at a subclinical dose", "description": "Thus, a subject can experience a benefit (e.g., improved memory or cognition) from a combination of drugs each of which is administered at very low, side-effect reducing or side-effect avoiding dose. Moreover, the combination of drugs may provide a benefit for a wider range or subjects and/or over a longer period of treatment."}},
  "data": [
    {"smiles": "Cl.O=C(N[C@H]1CN2CCC1CC2)c1cc2cccc(Cl)c2s1", "note": "[(R)-7-chloro-N-(quinuclidin-3-yl)benzo[b]thiophene-2-carboxamide hydrochloride]", "values": [
      {"measurement": "sensory electrophysiological responses which correlate with improved cognitive and functional performance", "setting": "schizophrenia subjects", "value": "can improve sensory electrophysiological responses"}
    ]},
    {"smiles": "O=C(N[C@H]1CN2CCC1CC2)c1cc2cccc(Cl)c2s1", "note": "[(R)-7-chloro-N-(quinuclidin-3-yl)benzo[b]thiophene-2-carboxamide]", "values": [
      {"measurement": "procognitive effects", "setting": "humans", "value": "can have procognitive effects in humans at unexpectedly low doses"},
      {"measurement": "memory", "setting": "[1]", "value": "memory can be improved"}
    ]}
  ]
}
